Assay results published in patent US7469185B2, “Primary rat hepatocyte toxicity modeling” (Ocimum Biosolutions, Inc., priority 2002, dated 2008).

What was measured:
[1] = system: primary rat hepatocytes; assay: Microarray gene expression analysis (Affymetrix rat array) of toxin-exposed hepatocytes, with linear discriminant score; assay type: cell-based; conditions: 24 hrs
Protocol: Identification of toxicity markers was performed by microarray analysis and by the AlamarBlue® assay, a classical measure of cytotoxicity. The AlamarBlue® assay was performed in triplicate.
The source of the primary rat hepatocytes was Sprague Dawley Outbred CDs Rats (CRL:CD®[SD] IGS BR, Charles River Laboratories). […] Primary rat hepatocytes were received the day after the cells were removed from the animals. After arrival, the cells, the cells were incubated overnight (˜15 hrs) before the toxin was added to the cultures. […] Toxin or vehicle was administered to hepatocyte cultures as follows. For each treatment, i.e., vehicle alone, vehicle+toxin at low dose, or vehicle+toxin at high dose, cells were harvested after 3, 6 and 24-hour incubations with the toxin solution or with the vehicle.
More than 10^7 cells are typically prepared for each sample. RNA was collected at 3, 6 and 24 hours following addition of the toxin according to the following procedure.
Each flask contained ˜10-20 million cells. The contents of each flask were mixed vigorously for one minute with a vortex mixer and then aspirated up and down 5 times with a pipette. The contents of each flask (˜12 ml each) was collected into a 50 ml conical polypropylene tissue culture tube (Falcon), snap frozen in liquid nitrogen and stored at ≦−86° C.
Microarray sample preparation was conducted with minor modifications, following the protocols set forth in the Affymetrix GeneChip® Expression Analysis Manual. Frozen cells were ground to a powder using a Spex Certiprep 6800 Freezer Mill. Total RNA was extracted with Trizol (GibcoBRL) utilizing the manufacturer's protocol. […] Double stranded cDNA was generated from mRNA using the SuperScript Choice system (GibcoBRL). First strand cDNA synthesis was primed with a T7-(dT24) oligonucleotide. The cDNA was phenol-chloroform extracted and ethanol precipitated to a final concentration of […]. From 2 μg of cDNA, cRNA was synthesized using Ambion's T7 MegaScript in vitro Transcription Kit.
To biotin label the cRNA, nucleotides Bio-11-CTP and Bio-16-UTP (Enzo Diagnostics) were added to the reaction. Following a 37° C. incubation for six hours, impurities were removed from the labeled cRNA following the RNeasy Mini kit protocol (Qiagen). cRNA was fragmented (fragmentation buffer consisting of 200 mM Tris-acetate, pH 8.1, 500 mM KOAc, 150 mM MgOAc) for thirty-five minutes at 94° C. Following the Affymetrix protocol, 55 μg of fragmented cRNA was hybridized on the Affymetrix rat array set for twenty-four hours at 60 rpm in a 45° C. hybridization oven. The chips were washed and stained with Streptavidin Phycoerythrin (SAPE) (Molecular Probes) in Affymetrix fluidics stations. To amplify staining, SAPE solution was added twice with an anti-streptavidin biotinylated antibody (Vector Laboratories) staining step in between. Hybridization to the probe arrays was detected by fluorometric scanning (Hewlett Packard Gene Array Scanner). Data was analyzed using Affymetrix GeneChip® version 3.0 and Expression Data Mining Tool (EDMT) software (version 1.0), S-Plus, and the GeneExpress® software system.
Each gene is identified by its Gene Logic identification number and can be cross-referenced to a gene name and representative SEQ ID NO. in Table 1.

[2] = system: dogs; conditions: dog, in vivo; cited from earlier work

**Q.** Which results are given for `Cl.Nc1nc2c(Cc3ccsc3)c[nH]c2c(=O)[nH]1.O` [CI-1000, 4H-pyrrolo:3,2-d:pyrimidin-4-one, 2-amino-3,5-dihydro-7-(3-thienylmethyl)-monohydrochloride monohydrate]?
**A.** Mean Tox ([1]; GLGC ID NO. 108): 773.3800; Mean Tox ([1]; GLGC ID NO. 573): 8.6367; Mean Tox ([1]; GLGC ID NO. 574): 4432.0900; Mean Tox ([1]; GLGC ID NO. 798): 128.0433; Mean Tox ([1]; GLGC ID NO. 1348): 71.9967; Mean Tox ([1]; GLGC ID NO. 1378): 98.1567; Mean Tox ([1]; GLGC ID NO. 1570): 1078.9433; Mean Tox ([1]; GLGC ID NO. 1571): 1228.2500; Mean Tox ([1]; GLGC ID NO. 1728): 390.6900; Mean Tox ([1]; GLGC ID NO. 1798): 347.1167; Mean Tox ([1]; GLGC ID NO. 2250): 3776.5600; Mean Tox ([1]; GLGC ID NO. 2267): 415.0967; Mean Tox ([1]; GLGC ID NO. 2382): 33.0133; Mean Tox ([1]; GLGC ID NO. 2909): 422.4233; Mean Tox ([1]; GLGC ID NO. 2911): 39.1667; Mean Tox ([1]; GLGC ID NO. 2933): 16.1500; Mean Tox ([1]; GLGC ID NO. 3246): 236.8700; Mean Tox ([1]; GLGC ID NO. 3501): 61.2333; Mean Tox ([1]; GLGC ID NO. 3631): 235.6533; Mean Tox ([1]; GLGC ID NO. 4636): 424.3433; Mean Tox ([1]; GLGC ID NO. 4650): 398.0633; Mean Tox ([1]; GLGC ID NO. 5044): 161.4467; Mean Tox ([1]; GLGC ID NO. 5258): 68.1000; Mean Tox ([1]; GLGC ID NO. 5496): 49.0667; Mean Tox ([1]; GLGC ID NO. 5615): 127.1533; Mean Tox ([1]; GLGC ID NO. 5899): 33.5000; Mean Tox ([1]; GLGC ID NO. 6033): 72.8967; Mean Tox ([1]; GLGC ID NO. 6224): 150.6700; Mean Tox ([1]; GLGC ID NO. 6291): 87.3167; Mean Tox ([1]; GLGC ID NO. 6343): 51.9167; Mean Tox ([1]; GLGC ID NO. 6717): 59.7300; Mean Tox ([1]; GLGC ID NO. 6996): 165.6633; Mean Tox ([1]; GLGC ID NO. 7926): 49.1133; Mean Tox ([1]; GLGC ID NO. 8395): 10.1200; Mean Tox ([1]; GLGC ID NO. 9309): 142.4767; Mean Tox ([1]; GLGC ID NO. 9500): 66.0900; Mean Tox ([1]; GLGC ID NO. 9845): 126.4867; Mean Tox ([1]; GLGC ID NO. 10138): 43.7667; Mean Tox ([1]; GLGC ID NO. 10544): 702.1267; Mean Tox ([1]; GLGC ID NO. 10920): −1.0367; Mean Tox ([1]; GLGC ID NO. 10986): 12.0067; Mean Tox ([1]; GLGC ID NO. 11610): 570.7167; Mean Tox ([1]; GLGC ID NO. 12563): 634.3933; Mean Tox ([1]; GLGC ID NO. 12580): 37.5533; Mean Tox ([1]; GLGC ID NO. 13169): 173.3367; Mean Tox ([1]; GLGC ID NO. 13283): 44.9933; Mean Tox ([1]; GLGC ID NO. 13346): 474.6867; Mean Tox ([1]; GLGC ID NO. 13563): 194.5233; Mean Tox ([1]; GLGC ID NO. 13614): 51.4367; Mean Tox ([1]; GLGC ID NO. 13919): 64.7367; Mean Tox ([1]; GLGC ID NO. 14521): 198.1933; Mean Tox ([1]; GLGC ID NO. 14934): 171.4667; Mean Tox ([1]; GLGC ID NO. 15087): 279.6733; Mean Tox ([1]; GLGC ID NO. 15205): 136.0033; Mean Tox ([1]; GLGC ID NO. 15403): 546.1933; Mean Tox ([1]; GLGC ID NO. 15663): 575.4367; Mean Tox ([1]; GLGC ID NO. 15685): 1989.9867; Mean Tox ([1]; GLGC ID NO. 15925): 154.8867; Mean Tox ([1]; GLGC ID NO. 16006): 341.7733; Mean Tox ([1]; GLGC ID NO. 16024): 520.0167; Mean Tox ([1]; GLGC ID NO. 16025): 313.1433; Mean Tox ([1]; GLGC ID NO. 16164): 1717.2267; Mean Tox ([1]; GLGC ID NO. 16947): 147.5900; Mean Tox ([1]; GLGC ID NO. 17115): −3.3700; Mean Tox ([1]; GLGC ID NO. 17365): 113.6667; Mean Tox ([1]; GLGC ID NO. 17549): 1296.6000; Mean Tox ([1]; GLGC ID NO. 17956): 167.2833; Mean Tox ([1]; GLGC ID NO. 18278): 30.2633; Mean Tox ([1]; GLGC ID NO. 18383): 210.0600; Mean Tox ([1]; GLGC ID NO. 18498): 412.3833; Mean Tox ([1]; GLGC ID NO. 18524): 233.6633; Mean Tox ([1]; GLGC ID NO. 18727): 1450.8800; Mean Tox ([1]; GLGC ID NO. 18777): 195.2400; Mean Tox ([1]; GLGC ID NO. 19371): 24.8700; Mean Tox ([1]; GLGC ID NO. 20586): 44.1067; Mean Tox ([1]; GLGC ID NO. 20664): 373.3533; Mean Tox ([1]; GLGC ID NO. 20701): 78.4500; Mean Tox ([1]; GLGC ID NO. 20755): 2569.4500; Mean Tox ([1]; GLGC ID NO. 20801): 441.4867; Mean Tox ([1]; GLGC ID NO. 20939): 971.5300; Mean Tox ([1]; GLGC ID NO. 21064): 291.1633; Mean Tox ([1]; GLGC ID NO. 21154): 116.8600; Mean Tox ([1]; GLGC ID NO. 21747): 330.9267; Mean Tox ([1]; GLGC ID NO. 21794): 5.9200; Mean Tox ([1]; GLGC ID NO. 22102): 633.5467; Mean Tox ([1]; GLGC ID NO. 22310): 316.3067; Mean Tox ([1]; GLGC ID NO. 22576): 484.4533; Mean Tox ([1]; GLGC ID NO. 22915): 409.8567; Mean Tox ([1]; GLGC ID NO. 22994): 83.8300; Mean Tox ([1]; GLGC ID NO. 23166): 758.8567; Mean Tox ([1]; GLGC ID NO. 23250): 317.7900; Mean Tox ([1]; GLGC ID NO. 23521): 60.4533; Mean Tox ([1]; GLGC ID NO. 23630): 789.8200; Mean Tox ([1]; GLGC ID NO. 23738): 290.9200; Mean Tox ([1]; GLGC ID NO. 23860): 310.3067; Mean Tox ([1]; GLGC ID NO. 24501): 2075.2267; Mean Tox ([1]; GLGC ID NO. 24554): 25.3833; Mean Tox ([1]; GLGC ID NO. 24814): 389.9067; Mean Tox ([1]; GLGC ID NO. 25594): 700.5833; Mean Tox ([1]; GLGC ID NO. 26184): 126.0933; serum ALT levels [2]: increased
